One data set has as its system C8166. Put plainly: Compound was tested for its ability to inhibit the replication of HIV-1 in C8166 T-cells. It is filed as functional. As to conditions: Homo sapiens, read-out: ED50 (the source's name).
Data set [1] in a line: Toxic dose required to inhibit the replication of HIV-1 in C8166 T-cells. The format is ADME, cell-based. The note with it: human, read-out: TD50 (the source's name).

pEC50: −log10 of the molar value.

Turning to `CC(=O)O[C@H]1C[C@H](n2cc(C)c(=O)[nH]c2=O)O[C@@H]1CO`, the pEC50 in the data set with C8166 was below 3.70. In addition, the CC50 in data set [1] was above 200 µM.

`Cc1cn([C@H]2C[C@H](OC(=O)C(Cl)(Cl)Cl)[C@@H](COP(=O)(OCC(Cl)(Cl)Cl)OCC(Cl)(Cl)Cl)O2)c(=O)[nH]c1=O`: in the data set with C8166, the pEC50 was 4.30. For the same compound, the CC50 in data set [1] was above 200 µM.

`Cc1cn([C@H]2C[C@H](OC(=O)C(C)C)[C@@H](COP(=O)(OCC(Cl)(Cl)Cl)OCC(Cl)(Cl)Cl)O2)c(=O)[nH]c1=O`: the pEC50 in the data set on C8166 is 4.40. The CC50 in data set [1] was above 200 µM.

For the compound `Cc1cn([C@H]2C[C@H](OC=O)[C@@H](COP(=O)(OCC(Cl)(Cl)Cl)OCC(Cl)(Cl)Cl)O2)c(=O)[nH]c1=O`, the pEC50 in the data set with C8166 is 4.00. For the same compound, the CC50 in data set [1] is above 200 µM.

With `CC(=O)O[C@H]1C[C@H](n2cc(C)c(=O)[nH]c2=O)O[C@@H]1COP(=O)(OCC(Cl)(Cl)Cl)OCC(Cl)(Cl)Cl`, in the data set with C8166, the pEC50 was 4.52. Moreover, the CC50 in data set [1] was above 200 µM.

For `CCC(=O)O[C@H]1C[C@H](n2cc(C)c(=O)[nH]c2=O)O[C@@H]1COP(=O)(OCC(Cl)(Cl)Cl)OCC(Cl)(Cl)Cl`, the pEC50 in the data set on C8166 was 4.46. Besides, in data set [1], the CC50 is 80 µM.

For the compound `Cc1cn([C@H]2C[C@H](OC(=O)CCl)[C@@H](COP(=O)(OCC(Cl)(Cl)Cl)OCC(Cl)(Cl)Cl)O2)c(=O)[nH]c1=O`, the pEC50 with C8166 is 4.30. For the same compound, the CC50 in data set [1] was 50 µM.

For `CCCC(=O)O[C@H]1C[C@H](n2cc(C)c(=O)[nH]c2=O)O[C@@H]1COP(=O)(OCC(Cl)(Cl)Cl)OCC(Cl)(Cl)Cl`, the pEC50 in the data set on C8166 was 4.12. The CC50 in data set [1] came out at 80 µM.

Turning to `Cc1cn([C@H]2C[C@H](N=[N+]=[N-])[C@@H](CO)O2)c(=O)[nH]c1=O` [ZIDOVUDINE], the pEC50 in the data set with C8166 is 8.00. Moreover, in data set [1], the CC50 is above 200 µM.

Source of the values: ChEMBL document CHEMBL1126500, “Kinase bypass: A new strategy for anti-HIV drug design” (Bioorg Med Chem Lett, 1993).
